In patent US20240158446A1, “CYCLIC COMPOUND HAVING SELECTIVE INHIBITORY ACTION ON KRAS OVER HRAS AND NRAS” (CHUGAI SEIYAKU KABUSHIKI KAISHA, priority 2021, published 2024):
*1 amine or outer side, *2 acyl side, *3 side chain or, on linkers, in order; H or OH if unused. Where a SMILES comes first, the peptide text is derived from it. Bridges are numbered along the chain shown (N, C = ends). [ ]: non-standard residue; d: D form. The star is where a group is joined. hPhe(3-Cl-4-CF3) = N[C@@H](CCc1ccc(C(F)(F)F)c(Cl)c1)C(=O)O; NPrPhe(4-CF3) = CCCN[C@@H](Cc1ccc(C(F)(F)F)cc1)C(=O)O; NPrAsp = CCCN([C@@H](CC(=O)[*:3])C(=O)[*:2])[*:1]; NEtAsp = CCN([C@@H](CC(=O)[*:3])C(=O)[*:2])[*:1]; X7 = CCN([C@H](C(=O)[*:2])C1CCCC1)[*:1]; NMeGly(cPent) = CN[C@H](C(=O)O)C1CCCC1; Ac4c(3,3-Me2) = CC1(C)CC(N)(C(=O)O)C1; NMeNva(3-Et) = CCC(CC)[C@H](NC)C(=O)O; NMeD = CN[C@@H](CC(=O)O)C(=O)O; NMeL = CN[C@@H](CC(C)C)C(=O)O; NMeNva = CCC[C@H](NC)C(=O)O; Morpholide = C1CN(*)CCO1; NMeA = CN[C@@H](C)C(=O)O; Aze = O=C(O)[C@@H]1CCN1; Ac4c = NC1(C(=O)O)CCC1; Sar = CNCC(=O)O

Columns and labels:
[1] = molecular target: GDP-bound KRAS wild-type protein (Homo sapiens, UniProt P01116); experiment: Binding to KRAS by surface plasmon resonance (SPR), Single Cycle Kinetics; settings: SPR, Single Cycle Kinetics, GDP-bound KRAS wild-type protein; read-out: KRAS KD
[2] = molecular target: GDP-bound HRAS wild-type protein (Homo sapiens, UniProt P01112); experiment: Binding to HRAS by surface plasmon resonance (SPR), Single Cycle Kinetics; settings: ratio of KD for GDP-bound HRAS wild-type protein to KD for KRAS, SPR
[3] = molecular target: GDP-bound NRAS wild-type protein (Homo sapiens, UniProt P01111); experiment: Binding to NRAS by surface plasmon resonance (SPR), Single Cycle Kinetics; settings: ratio of KD for GDP-bound NRAS wild-type protein to KD for KRAS, SPR
[4] = tested on: human lung cancer strain NCI-H441; experiment: cells; settings: NCI-H441, 96 h, read-out: NCI-H441 IC50 (nM), NCI-H441 cell proliferation, 4 days, CellTiter-Glo;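 also: cell proliferation inhibition after four days measured by CellTiter-Glo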

Sequence of GDP-bound KRAS wild-type protein (P01116 whole entry): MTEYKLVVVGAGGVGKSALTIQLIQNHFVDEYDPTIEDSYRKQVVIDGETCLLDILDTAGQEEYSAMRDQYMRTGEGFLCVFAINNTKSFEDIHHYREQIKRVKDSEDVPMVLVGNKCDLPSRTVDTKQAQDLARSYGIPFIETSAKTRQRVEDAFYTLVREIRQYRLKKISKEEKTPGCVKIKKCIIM
Sequence of GDP-bound HRAS wild-type protein (P01112 whole entry): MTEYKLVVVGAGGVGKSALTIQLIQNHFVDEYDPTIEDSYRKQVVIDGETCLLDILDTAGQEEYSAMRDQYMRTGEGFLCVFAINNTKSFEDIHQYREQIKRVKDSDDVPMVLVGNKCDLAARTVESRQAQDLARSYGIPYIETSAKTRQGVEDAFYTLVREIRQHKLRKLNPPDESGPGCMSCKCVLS
Sequence of GDP-bound NRAS wild-type protein (P01111 whole entry): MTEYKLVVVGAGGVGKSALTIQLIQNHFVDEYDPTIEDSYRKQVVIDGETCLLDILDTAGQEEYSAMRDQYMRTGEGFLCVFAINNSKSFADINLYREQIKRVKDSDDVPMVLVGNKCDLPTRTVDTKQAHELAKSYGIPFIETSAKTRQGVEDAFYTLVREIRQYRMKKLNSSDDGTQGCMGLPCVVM

Structure (SMILES) | Kd [1] | HRAS/KRAS (KD ratio) [2] | NRAS/KRAS (KD ratio) [3] | IC50 [4]
CCCN1C(=O)CN(C)C(=O)CN(C)C(=O)[C@H]([C@@H](C)CC)NC(=O)[C@H](CC(C)C)N(C)C(=O)C[C@@H](C(=O)N2CCOCC2)N(C)C(=O)[C@H](C2CCCC2)N(CC)C(=O)C2(CCC2)NC(=O)[C@@H]2CCCN2C(=O)[C@H](CCc2ccc(C(F)(F)F)c(Cl)c2)NC(=O)CN(C)C(=O)[C@@H]1Cc1ccc(C(F)(F)F)cc1 [PP1952] ([NMeL]I[Sar][Sar][NPrPhe(4-CF3)][Sar][hPhe(3-Cl-4-CF3)]P[Ac4c][X7][NMeD]-Morpholide; lactam N-11) | 0.13 nM | B (a compound having 3 or more and less than 10 is denoted as B) | B (a compound having 3 or more and less than 10 is denoted as B) | 14 nM
CCCN1C(=O)CN(C)C(=O)CN(C)C(=O)[C@H]([C@@H](C)CC)NC(=O)[C@H](CC(C)C)N(C)C(=O)C[C@@H](C(=O)N2CCOCC2)N(CC)C(=O)[C@H](C2CCCC2)N(C)C(=O)C2(CCC2)NC(=O)[C@@H]2CCCN2C(=O)[C@H](CCc2ccc(C(F)(F)F)c(Cl)c2)NC(=O)CN(C)C(=O)[C@@H]1Cc1ccc(C(F)(F)F)cc1 [PP1953] ([NMeL]I[Sar][Sar][NPrPhe(4-CF3)][Sar][hPhe(3-Cl-4-CF3)]P[Ac4c][NMeGly(cPent)][NEtAsp]-Morpholide; lactam N-11) | 0.42 nM | B (a compound having 3 or more and less than 10 is denoted as B) | B (a compound having 3 or more and less than 10 is denoted as B) | 8.7 nM
CCC[C@H]1C(=O)N[C@@H]([C@@H](C)CC)C(=O)N(C)CC(=O)N(C)CC(=O)N(CCC)[C@@H](Cc2ccc(C(F)(F)F)cc2)C(=O)N(C)CC(=O)N[C@@H](CCc2ccc(C(F)(F)F)c(Cl)c2)C(=O)N2CCC[C@H]2C(=O)NC2(CCC2)C(=O)N(C)[C@@H](C2CCCC2)C(=O)N(CCC)[C@H](C(=O)N2CCOCC2)CC(=O)N1C [PP1954] ([NMeNva]I[Sar][Sar][NPrPhe(4-CF3)][Sar][hPhe(3-Cl-4-CF3)]P[Ac4c][NMeGly(cPent)][NPrAsp]-Morpholide; lactam N-11) | 0.77 nM | B (a compound having 3 or more and less than 10 is denoted as B) | B (a compound having 3 or more and less than 10 is denoted as B) | 8.1 nM
CCC[C@H]1C(=O)N[C@@H]([C@@H](C)CC)C(=O)N(C)[C@@H](C)C(=O)N2CC[C@H]2C(=O)N(CCC)[C@@H](Cc2ccc(C(F)(F)F)cc2)C(=O)N(C)CC(=O)N[C@@H](CCc2ccc(C(F)(F)F)c(Cl)c2)C(=O)N2CCC[C@H]2C(=O)NC2(CCC2)C(=O)N(C)[C@@H](C2CCCC2)C(=O)N(CC)[C@H](C(=O)N2CCOCC2)CC(=O)N1C [PP1955] ([NMeNva]I[NMeA][Aze][NPrPhe(4-CF3)][Sar][hPhe(3-Cl-4-CF3)]P[Ac4c][NMeGly(cPent)][NEtAsp]-Morpholide; lactam N-11) | 0.82 nM | B (a compound having 3 or more and less than 10 is denoted as B) | C (A compound having a KD ratio of 0.1 or more and less than 3 is denoted as C) | 4.4 nM
CCCN1C(=O)CN(C)C(=O)CN(C)C(=O)[C@H]([C@@H](C)CC)NC(=O)[C@H](CC(C)C)N(C)C(=O)C[C@@H](C(=O)N(C)C)N(CC)C(=O)[C@H](C2CCCC2)N(C)C(=O)C2(CCC2)NC(=O)[C@@H]2CCCN2C(=O)[C@H](CCc2ccc(C(F)(F)F)c(Cl)c2)NC(=O)CN(C)C(=O)[C@@H]1Cc1ccc(C(F)(F)F)cc1 [PP1956] ([NMeL]I[Sar][Sar][NPrPhe(4-CF3)][Sar][hPhe(3-Cl-4-CF3)]P[Ac4c][NMeGly(cPent)][NEtAsp]-NMe2; lactam N-11) | 0.28 nM | B (a compound having 3 or more and less than 10 is denoted as B) | B (a compound having 3 or more and less than 10 is denoted as B) | 2.2 nM
CCCN1C(=O)[C@@H]2CCN2C(=O)[C@H](C)N(C)C(=O)[C@H]([C@@H](C)CC)NC(=O)[C@H](CC(C)C)N(C)C(=O)C[C@@H](C(=O)N(C)C)N(CC)C(=O)[C@H](C2CCCC2)N(C)C(=O)C2(CCC2)NC(=O)[C@@H]2CCCN2C(=O)[C@H](CCc2ccc(C(F)(F)F)c(Cl)c2)NC(=O)CN(C)C(=O)[C@@H]1Cc1ccc(C(F)(F)F)cc1 [PP1957] ([NMeL]I[NMeA][Aze][NPrPhe(4-CF3)][Sar][hPhe(3-Cl-4-CF3)]P[Ac4c][NMeGly(cPent)][NEtAsp]-NMe2; lactam N-11) | 0.36 nM | B (a compound having 3 or more and less than 10 is denoted as B) | C (A compound having a KD ratio of 0.1 or more and less than 3 is denoted as C) | 8.6 nM
CCCN1C(=O)CN(C)C(=O)CN(C)C(=O)[C@H]([C@@H](C)CC)NC(=O)[C@H](CC(C)C)N(C)C(=O)C[C@@H](C(=O)N2CCOCC2)N(C)C(=O)[C@H](C(CC)CC)N(C)C(=O)C2(CCC2)NC(=O)[C@@H]2CCCN2C(=O)[C@H](CCc2ccc(C(F)(F)F)c(Cl)c2)NC(=O)CN(C)C(=O)[C@@H]1Cc1ccc(C(F)(F)F)cc1 [PP1958] ([NMeL]I[Sar][Sar][NPrPhe(4-CF3)][Sar][hPhe(3-Cl-4-CF3)]P[Ac4c][NMeNva(3-Et)][NMeD]-Morpholide; lactam N-11) | 0.53 nM | B (a compound having 3 or more and less than 10 is denoted as B) | B (a compound having 3 or more and less than 10 is denoted as B) | 57.8 nM
CCC[C@H]1C(=O)N[C@@H]([C@@H](C)CC)C(=O)N(C)[C@@H](C)C(=O)N2CC[C@H]2C(=O)N(CCC)[C@@H](Cc2ccc(C(F)(F)F)cc2)C(=O)N(C)CC(=O)N[C@@H](CCc2ccc(C(F)(F)F)c(Cl)c2)C(=O)N2CCC[C@H]2C(=O)NC2(CCC2)C(=O)N(C)[C@@H](C(CC)CC)C(=O)N(C)[C@H](C(=O)N2CCOCC2)CC(=O)N1C [PP1959] ([NMeNva]I[NMeA][Aze][NPrPhe(4-CF3)][Sar][hPhe(3-Cl-4-CF3)]P[Ac4c][NMeNva(3-Et)][NMeD]-Morpholide; lactam N-11) | 0.55 nM | B (a compound having 3 or more and less than 10 is denoted as B) | C (A compound having a KD ratio of 0.1 or more and less than 3 is denoted as C) | 14.7 nM
CCCN1C(=O)CN(C)C(=O)CN(C)C(=O)[C@H]([C@@H](C)CC)NC(=O)[C@H](CC(C)C)N(C)C(=O)C[C@@H](C(=O)N(C)C)N(C)C(=O)[C@H](C(CC)CC)N(C)C(=O)C2(CCC2)NC(=O)[C@@H]2CCCN2C(=O)[C@H](CCc2ccc(C(F)(F)F)c(Cl)c2)NC(=O)CN(C)C(=O)[C@@H]1Cc1ccc(C(F)(F)F)cc1 [PP1960] ([NMeL]I[Sar][Sar][NPrPhe(4-CF3)][Sar][hPhe(3-Cl-4-CF3)]P[Ac4c][NMeNva(3-Et)][NMeD]-NMe2; lactam N-11) | 0.17 nM | C (A compound having a KD ratio of 0.1 or more and less than 3 is denoted as C) | B (a compound having 3 or more and less than 10 is denoted as B) | 6 nM
CCCN1C(=O)[C@@H]2CCN2C(=O)[C@H](C)N(C)C(=O)[C@H]([C@@H](C)CC)NC(=O)[C@H](CC(C)C)N(C)C(=O)C[C@@H](C(=O)N(C)C)N(C)C(=O)[C@H](C(CC)CC)N(C)C(=O)C2(CCC2)NC(=O)[C@@H]2CCCN2C(=O)[C@H](CCc2ccc(C(F)(F)F)c(Cl)c2)NC(=O)CN(C)C(=O)[C@@H]1Cc1ccc(C(F)(F)F)cc1 [PP1961] ([NMeL]I[NMeA][Aze][NPrPhe(4-CF3)][Sar][hPhe(3-Cl-4-CF3)]P[Ac4c][NMeNva(3-Et)][NMeD]-NMe2; lactam N-11) | 0.22 nM | C (A compound having a KD ratio of 0.1 or more and less than 3 is denoted as C) | C (A compound having a KD ratio of 0.1 or more and less than 3 is denoted as C) | 8 nM
CCCN1C(=O)CN(C)C(=O)CN(C)C(=O)[C@H]([C@@H](C)OC)NC(=O)[C@H](CC(C)C)N(C)C(=O)C[C@@H](C(=O)N2CCOCC2)N(C)C(=O)[C@H](C2CCCC2)N(C)C(=O)C2(CC(C)(C)C2)NC(=O)[C@@H]2CCCN2C(=O)[C@H](CCc2ccc(C(F)(F)F)c(Cl)c2)NC(=O)CN(C)C(=O)[C@@H]1Cc1ccc(C(F)(F)F)cc1 [PP1963] ([NMeL]T(Me)[Sar][Sar][NPrPhe(4-CF3)][Sar][hPhe(3-Cl-4-CF3)]P[Ac4c(3,3-Me2)][NMeGly(cPent)][NMeD]-Morpholide; lactam N-11) | 0.18 nM | C (A compound having a KD ratio of 0.1 or more and less than 3 is denoted as C) | B (a compound having 3 or more and less than 10 is denoted as B) | 9.1 nM
CCCN1C(=O)CN(C)C(=O)CN(C)C(=O)[C@H]([C@@H](C)OCC)NC(=O)[C@H](CC(C)C)N(C)C(=O)C[C@@H](C(=O)N2CCOCC2)N(C)C(=O)[C@H](C2CCCC2)N(C)C(=O)C2(CC(C)(C)C2)NC(=O)[C@@H]2CCCN2C(=O)[C@H](CCc2ccc(C(F)(F)F)c(Cl)c2)NC(=O)CN(C)C(=O)[C@@H]1Cc1ccc(C(F)(F)F)cc1 [PP1964] ([NMeL]T(Et)[Sar][Sar][NPrPhe(4-CF3)][Sar][hPhe(3-Cl-4-CF3)]P[Ac4c(3,3-Me2)][NMeGly(cPent)][NMeD]-Morpholide; lactam N-11) | 0.19 nM | B (a compound having 3 or more and less than 10 is denoted as B) | B (a compound having 3 or more and less than 10 is denoted as B) | 10.3 nM
